For the experiment, the system named is L1210 leukemia ip in BDF1 mice, survival T/C. The experiment can be described thus: NCI In Vivo Anticancer Drug Screen. Data for tumor model L1210 Leukemia (intraperitoneal) in B6D2F1 (BDF1) mice. Conditions: endpoint: mean survival time, higher = longer survival. The method in brief: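 Mice bearing the transplanted tumor received compound or vehicle. Survival of the treated group was divided by that of the vehicle-treated control group to give the ratio.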

The mark [1] stands for this setting: dose: 50.0 mg/kg/injection, schedule: Q01DX009 (ip), vehicle: Klucel (hydroxypropylcellulose) (HPC).
The mark [2] stands for this setting: dose: 100.0 mg/kg/injection, schedule: Q01DX009 (ip), vehicle: Klucel (hydroxypropylcellulose) (HPC).
The mark [3] stands for this setting: dose: 100.0 mg/kg/injection, schedule: Q04DX003 (ip), vehicle: Klucel (hydroxypropylcellulose) (HPC).
Setting [4] is: dose: 200.0 mg/kg/injection, schedule: Q01DX009 (ip), vehicle: Klucel (hydroxypropylcellulose) (HPC).
Setting [5] is: dose: 200.0 mg/kg/injection, schedule: Q04DX003 (ip), vehicle: Klucel (hydroxypropylcellulose) (HPC).
[6] abbreviates: dose: 400.0 mg/kg/injection, schedule: Q04DX003 (ip), vehicle: Klucel (hydroxypropylcellulose) (HPC).
Setting [7] is: dose: 100.0 mg/kg/injection, schedule: Q04DX002 (ip), vehicle: saline with Tween-80.
Setting [8] is: dose: 200.0 mg/kg/injection, schedule: Q04DX002 (ip), vehicle: saline with Tween-80.
The mark [9] stands for this setting: dose: 400.0 mg/kg/injection, schedule: Q04DX002 (ip), vehicle: saline with Tween-80.
[10] abbreviates: dose: 100.0 mg/kg/injection, schedule: Q01DX001 (ip), vehicle: saline.
The mark [11] stands for this setting: dose: 200.0 mg/kg/injection, schedule: Q01DX001 (ip), vehicle: saline.
[12] abbreviates: dose: 37.5 mg/kg/injection, schedule: Q04DX003 (ip), vehicle: acetone.
Setting [13] is: dose: 75.0 mg/kg/injection, schedule: Q04DX003 (ip), vehicle: acetone.
Setting [14] is: dose: 150.0 mg/kg/injection, schedule: Q01DX001 (ip), vehicle: saline.
Where [15] appears, read: dose: 25.0 mg/kg/injection, schedule: Q01DX009 (ip), vehicle: saline.
Where [16] appears, read: dose: 50.0 mg/kg/injection, schedule: Q01DX009 (ip), vehicle: saline.
The mark [17] stands for this setting: dose: 100.0 mg/kg/injection, schedule: Q01DX009 (ip), vehicle: saline.

Values joined by “and” are separate entries in the source; they are usually repeats but may differ in a detail not shown here. Equal entries are not always repeated. Inconclusive results and toxic doses are left out.

Turning to `COc1ccc(NC(=O)CC=C(C)C)nn1`, the T/C by setting is: under setting [1], 100 % of control; under setting [2], 100 % of control; under setting [3], 102 % of control; under setting [4], 91 % of control; under setting [5], 104 % of control; under setting [6], 110 % of control.
For `Cc1ccc(NC(=O)Oc2ccc([N+](=O)[O-])cc2)cc1S(=O)(=O)F`, the T/C reads like this: (dose: 100.0 mg/kg/injection, schedule: Q01DX001 (ip), vehicle: saline with Tween-80) 100 % of control and 101 % of control; (dose: 100.0 mg/kg/injection, schedule: Q01DX009 (ip), vehicle: saline with Tween-80) 98 % of control and 101 % of control; under setting [7], 94 % of control and 99 % of control; (dose: 100.0 mg/kg/injection, schedule: Q04DX003 (ip), vehicle: saline with Tween-80) 98 % of control and 102 % of control; (dose: 200.0 mg/kg/injection, schedule: Q01DX001 (ip), vehicle: saline with Tween-80) 97 % of control and 100 % of control; (dose: 200.0 mg/kg/injection, schedule: Q01DX009 (ip), vehicle: saline with Tween-80) 103 % of control and 109 % of control. For the same compound, the T/C under setting [8] was 100 % of control and 90 % of control; the T/C (dose: 200.0 mg/kg/injection, schedule: Q04DX003 (ip), vehicle: saline with Tween-80) was 94 % of control and 102 % of control; the T/C (dose: 400.0 mg/kg/injection, schedule: Q01DX001 (ip), vehicle: saline with Tween-80) was 104 % of control and 107 % of control; the T/C under setting [9] is 96 % of control and 101 % of control; the T/C (dose: 400.0 mg/kg/injection, schedule: Q04DX003 (ip), vehicle: saline with Tween-80) is 98 % of control.
Turning to `O=C1c2ccccc2C(=O)c2[nH]ncc21`, the T/C runs as follows: under setting [7], 102 % of control; under setting [8], 95 % of control; under setting [9], 91 % of control.
As to `NC1c2ccccc2CC1C(=O)O` (configuration not stated), the T/C was 95 % of control under setting [10] and 97 % of control under setting [11].
Take `COc1cc(N(CCCl)CCCl)c(OC)cc1/C=N/NC(=O)CC(N)C(=O)O` (configuration not stated): the T/C was 107 % of control (dose: 12.37 mg/kg/injection, schedule: Q01DX009 (ip), vehicle: saline); 113 % of control (dose: 12.5 mg/kg/injection, schedule: Q01DX009 (ip), vehicle: saline with Tween-80); 112 % of control (dose: 18.75 mg/kg/injection, schedule: Q01DX009 (ip), vehicle: saline); 119 % of control (dose: 25.0 mg/kg/injection, schedule: Q01DX009 (ip), vehicle: saline with Tween-80); 112 % of control (dose: 28.12 mg/kg/injection, schedule: Q01DX009 (ip), vehicle: saline); 88 % of control (dose: 37.5 mg/kg/injection, schedule: Q01DX009 (ip), vehicle: saline). For the same compound, the T/C was 111 % of control under setting [12]; 119 % of control (dose: 50.0 mg/kg/injection, schedule: Q01DX009 (ip), vehicle: saline with Tween-80); 123 % of control (dose: 75.0 mg/kg/injection, schedule: Q01DX001 (ip), vehicle: saline); 88 % of control (dose: 75.0 mg/kg/injection, schedule: Q01DX009 (ip), vehicle: saline); 105 % of control under setting [13]; 115 % of control (dose: 100.0 mg/kg/injection, schedule: Q01DX001 (ip), vehicle: carboxymethylcellulose (CMC)). Besides, the T/C reads like this: (dose: 100.0 mg/kg/injection, schedule: Q01DX009 (ip), vehicle: other) 120 % of control; under setting [14], 123 % of control; (dose: 150.0 mg/kg/injection, schedule: Q04DX003 (ip), vehicle: acetone) 113 % of control; (dose: 177.0 mg/kg/injection, schedule: Q01DX001 (ip), vehicle: carboxymethylcellulose (CMC)) 120 % of control; (dose: 266.0 mg/kg/injection, schedule: Q01DX001 (ip), vehicle: carboxymethylcellulose (CMC)) 124 % of control; (dose: 400.0 mg/kg/injection, schedule: Q01DX001 (ip), vehicle: carboxymethylcellulose (CMC)) 118 % of control. The T/C (dose: 600.0 mg/kg/injection, schedule: Q01DX001 (ip), vehicle: carboxymethylcellulose (CMC)) was 153 % of control.
In the case of `CCCCOP(=O)(N1CC1C)N1CC1C` (configuration not stated), the T/C is, setting by setting: (dose: 6.25 mg/kg/injection, schedule: Q04DX003 (ip), vehicle: acetone) 109 % of control; (dose: 12.5 mg/kg/injection, schedule: Q04DX003 (ip), vehicle: acetone) 115 % of control; (dose: 25.0 mg/kg/injection, schedule: Q01DX001 (ip), vehicle: saline) 123 % of control; (dose: 25.0 mg/kg/injection, schedule: Q04DX003 (ip), vehicle: acetone) 153 % of control and 168 % of control; under setting [12], 163 % of control; (dose: 50.0 mg/kg/injection, schedule: Q01DX001 (ip), vehicle: saline) 164 % of control. For the same compound, the T/C is 158 % of control (dose: 66.0 mg/kg/injection, schedule: Q01DX001 (ip), vehicle: acetone); 91 % of control under setting [13]; 169 % of control (dose: 100.0 mg/kg/injection, schedule: Q01DX001 (ip), vehicle: acetone); 159 % of control and 192 % of control under setting [10]; 189 % of control (dose: 150.0 mg/kg/injection, schedule: Q01DX001 (ip), vehicle: acetone); 168 % of control under setting [14].
Regarding `CC(=O)OCC(C)CC/C(=N\O)C(C)C1/C(=N/O)CC2C=C3CC(OC(C)=O)CCC3(C)CC21C` (configuration not stated), the T/C is, setting by setting: under setting [1], 97 % of control; under setting [2], 91 % of control; under setting [4], 91 % of control.
On to `c1ccc2c(c1)ccc1c(C3CO3)cccc12` (configuration not stated), for which the T/C reads like this: under setting [7], 101 % of control; under setting [8], 98 % of control; under setting [9], 88 % of control.
As for `COc1ccc(C(=O)NC2CCC2)cc1`, the T/C is 100 % of control under setting [15], 108 % of control under setting [16] and 100 % of control under setting [17].
For the compound `O=C(NCCCl)Nc1ccc2c(c1)CCC2`, the T/C runs as follows: under setting [3], 94 % of control and 107 % of control; under setting [5], 103 % of control and 90 % of control; under setting [6], 92 % of control.
For `CC(C)(O)/C=C/C(=O)[C@](C)(O)[C@H]1[C@H](O)C[C@@]2(C)[C@@H]3CC=C4[C@@H](C=C(O)C(=O)C4(C)C)[C@]3(C)C(=O)C[C@]12C`, the T/C is, setting by setting: (dose: 100.0 micrograms/kg/injection, schedule: Q01DX001 (sc), vehicle: steriod suspending solution) 104 % of control; (dose: 200.0 micrograms/kg/injection, schedule: Q01DX001 (sc), vehicle: steriod suspending solution) 102 % of control; (dose: 400.0 micrograms/kg/injection, schedule: Q01DX001 (sc), vehicle: steriod suspending solution) 104 % of control; (dose: 800.0 micrograms/kg/injection, schedule: Q01DX001 (sc), vehicle: steriod suspending solution) 96 % of control.
`CC(O)C(O)C(=O)O` (configuration not stated): the T/C by setting is: under setting [15], 95 % of control; under setting [16], 90 % of control; under setting [10], 96 % of control; under setting [17], 95 % of control; (dose: 100.0 mg/kg/injection, schedule: Q04DX003 (ip), vehicle: saline) 108 % of control; under setting [11], 102 % of control. The T/C is 101 % of control (dose: 200.0 mg/kg/injection, schedule: Q04DX003 (ip), vehicle: saline); 96 % of control (dose: 400.0 mg/kg/injection, schedule: Q01DX001 (ip), vehicle: saline); 94 % of control (dose: 400.0 mg/kg/injection, schedule: Q04DX003 (ip), vehicle: saline).
On to `C=COP(OCCCC)OCCCC`, for which the T/C was 94 % of control (dose: 25.0 mg/kg/injection, schedule: Q04DX002 (ip), vehicle: saline); 91 % of control (dose: 50.0 mg/kg/injection, schedule: Q04DX002 (ip), vehicle: saline); 93 % of control and 97 % of control (dose: 100.0 mg/kg/injection, schedule: Q04DX002 (ip), vehicle: saline); 91 % of control (dose: 200.0 mg/kg/injection, schedule: Q04DX002 (ip), vehicle: saline); 96 % of control (dose: 400.0 mg/kg/injection, schedule: Q04DX002 (ip), vehicle: saline).
Turning to `COC(=O)c1ccccc1NC(=O)Nc1ccccc1Cl`, the T/C runs as follows: under setting [1], 88 % of control; under setting [2], 88 % of control; under setting [3], 89 % of control; under setting [5], 92 % of control.

These data come from PubChem BioAssay AID248 (DTP/NCI, 2004).
